The source of these data is article PMC11377810, “A Gaussia luciferase reporter assay for the evaluation of coronavirus Nsp5/3CLpro activity” (Scientific Reports, 2024).

Bounds are passed on as bounds.

In data set [1] the target is T1, SARS-CoV-2 Nsp5 (Severe acute respiratory syndrome coronavirus 2, UniProt P0DTD1).
The subject of a further data set is COVID-19. The settings on record: cited from earlier work.
Data set [2] addresses T1, SARS-CoV-2 Nsp5. The data set can be described thus: cell-based.
The subject of data set [3] is HEK293T reporter cells. The data set can be described thus: MTT assay of cell metabolic activity of reporter cells. The settings on record: at the active concentrations ≥ 20 µM, Fig. 4c. For orientation: Tetrazolium assays rely on reduction of a dye to a coloured formazan, in cell work by metabolically active cells.
For data set [4] the following is noted: in vivo, cited from earlier work.
Data set [5] deals with HEK293T reporter cells.

The term IC50 denotes the concentration that inhibits the measured activity by half. Low values mean greater potency, high ones weaker potency. Take `Cc1cccc(C)c1OCC(=O)N[C@@H](Cc1ccccc1)[C@@H](O)C[C@H](Cc1ccccc1)NC(=O)[C@H](C(C)C)N1CCCNC1=O` [Lopinavir]: on SARS-CoV-2 Nsp5 [1], the “concentrations that significantly decreased the Gaussia luciferase signal (lowest significantly active dose)” value is given as at least 20 µM; the “effective and non-cytotoxic concentration range” value is 8 to 64 µM. Further, the “benefit in the treatment of COVID-19” value in the data set with COVID-19 (COVID-19 patients, clinical trials) is “little to no benefit”. Further, the “benefit in COVID-19 patients” value in the data set on COVID-19 (multiple clinical trials) was “no significant benefit”. Also, inhibition at SARS-CoV-2 Nsp5 [2] (IC50, inhibition of Nsp5 reporter (Gaussia luciferase) activity) was half-maximal at 21 µM (IC50). Further, the IC50 at SARS-CoV-2 Nsp5 [2] (IC50, inhibition of Nsp5 reporter activity, re-evaluated at lower nontoxic concentrations, additional concentrations, 8–64 µM range (Fig. 4e)) stood at 12 µM. The “cytotoxicity (MTT)” value in the data set with HEK293T reporter cells [3] was “cytotoxic at all of the tested active concentrations”.
For the compound `COc1cccc2[nH]c(C(=O)N[C@@H](CC(C)C)C(=O)N[C@@H](C[C@@H]3CCNC3=O)C(=O)COP(=O)(O)O)cc12` [Lufotrelvir], in data set [4] (po), the oral bioavailability result is “low”. In addition, the systemic clearance result in data set [4] is on record as “fast”.
`COc1cccc2[nH]c(C(=O)N[C@@H](CC(C)C)C(=O)N[C@@H](C[C@@H]3CCNC3=O)C(=O)CO)cc12` [PF-00835231] returned a non-cytotoxic concentrations with HEK293T reporter cells [5] of at most 50 µM.
